Experimental data published in patent publication US11613753B2, “Methods and pharmaceutical compositions for treating tubulin carboxypeptidases associated diseases” (LES LABORATOIRES SERVIER, priority 2017, dated 2023).
“Also recorded” adds a separate entry of the source.

Biological target: T1, brain TCP (fraction IV) (Mus musculus, UniProt Q8C1W1)
T1 construct: from tissue; host or cells: adult mouse brain, fraction IV (ammonium sulfate cut, Hitrap Q XL flow-through, Hitrap SP XL eluate)
T1 sequence (Q8C1W1 1-375): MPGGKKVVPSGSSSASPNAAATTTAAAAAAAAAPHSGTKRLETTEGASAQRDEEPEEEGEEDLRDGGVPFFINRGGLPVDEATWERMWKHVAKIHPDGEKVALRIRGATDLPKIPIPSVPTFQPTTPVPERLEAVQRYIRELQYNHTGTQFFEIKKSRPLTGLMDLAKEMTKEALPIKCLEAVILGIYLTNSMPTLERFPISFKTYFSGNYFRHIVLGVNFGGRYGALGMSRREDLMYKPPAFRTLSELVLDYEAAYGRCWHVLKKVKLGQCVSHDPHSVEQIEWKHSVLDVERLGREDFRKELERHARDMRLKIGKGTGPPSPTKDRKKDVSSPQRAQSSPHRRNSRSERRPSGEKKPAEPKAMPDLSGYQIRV
T1 sequence (Q99LQ4 1-66 partner): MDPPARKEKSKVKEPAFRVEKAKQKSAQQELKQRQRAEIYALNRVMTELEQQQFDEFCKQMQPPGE
Assay: TCP activity assay, radioactivity test with [14C]-tyrosinated taxol-stabilized microtubules, on enriched brain fraction IV
Type: biochemical
Conditions: FIG. 1B
Protocol: Preparation of tyrosinated tubulin and microtubule, and EB1. Bovine brain tubulin (12 mg/mL, prepared as in (S. Ramirez-Rios et al., (2016) Molecular biology of the cell 27, 2924) was tyrosinated by incubation for 45 min at 30° C. with purified chicken TTL (1 mg/mL, gift from Steinmetz group) and 0.1 mM L-tyrosine or [14C]-L-tyrosine (0.125 μCi/mole) in 40 mM Pipes at pH 6.7, 60 mM KCl, 2.5 mM ATP, 1 mM DTT, 12.5 mM MgCl2. Microtubules polymerization was allowed by one-third dilution in 100 mM PIPES at pH 6.7. 1 mM EGTA, 1 mM MgCl2, 30% glycerol, 1 mM GTP and incubation at 32° C. for 45 min, followed by another 45 min incubation with 50 μM Paclitaxel (Calbiochem). Microtubules were sedimented by 25 min centrifugation at 100,000 g and 30° C. on 60% glycerol cushions. TTL-containing supernatant was discarded and tyrosinated-microtubules were resuspended in 100 mM PIPES at pH 6.7, 1 mM EGTA, 1 mM MgCl2, 10% glycerol, 80 μM paclitaxel and stored at −20° C. To obtain unpolymerized tyrosinated-tubulin, paclitaxel was omitted during the whole procedure. EB1 was prepared as in S. Ramirez-Rios et al., (2016) Molecular biology of the cell 27, 2924.
TCP activity assays. In radioactivity tests using [14C]-tyrosinated taxol-stabilized microtubule, enzyme activity was measured in 100 mM MES at pH 6.7. 1 mM EGTA and 1 mM MgCl2 using 2 μM radiolabeled tubulin, except in FIGS. 2D and S2D (as indicated in legend). Reactions were performed for 45 min at 37° C. (without or with previous incubation with inhibitors, see legends) and were stopped on ice by addition of 20 μg/ml bovine serum albumin and 10% perchloric acid and centrifugation. Tyrosine cleaved from microtubules was estimated by measuring radioactivity in the supernatant (a zero time control was subtracted). To compose the table of Fig. S1A, detyrosination activity from equal volumes of the various fractions was measured. In tests with inhibitors, detyrosination activity was tested after a 20 min preincubation with inhibitor (except in Figs. S2C and S2) where varying time of incubation were used as indicated in legend), and results with inhibitors were expressed as percentage of the activity in the control with corresponding solvent. In tests using Western-blots, enzyme activity was assayed with 5 μM substrates (taxol-stabilized microtubule, tubulin or EB1) in 100 mM MES at pH 6.7. Positive controls were done with carboxypeptidase A (2 ng/mL). Reactions were stopped by addition of Laemmli buffer. A reaction with carboxypeptidase A (CPA), which efficiently cleaves aromatic and aliphatic C-terminal residues, was used as positive control. In tests using VASH/SVBP complexes purified on cobalt resin from HEK293T cells, enzymes concentration were approximated from in-gel Coomassie-blue staining of purified VASH1 and VASH2 together with standards of bovine serum albumin.
Enzyme enrichment. We designed a three-step purification procedure from brain lysate inspired from previous efforts (N. Kumar, M. Flavin, (1981) The Journal of biological chemistry 256, 7678; C. E. Argarana, H. S. Barra, R. Caputto, (1980) Journal of neurochemistry 34, 114). All steps were carried out at 4° C. Adult mice brains were homogenized in 50 mM phosphate buffer at pH 6.7, 1 mM EGTA, 1 mM MgCl2, 1 μg/ml DNAse with a protease inhibitor cocktail (cOmplete EDTA-free, Roche) and centrifuged 1 h at 100.000 g. The supernatant was collected (Fraction 1). In step 1 (ammonium sulfate fractionation), Fraction 1 was slowly brought to 45% ammonium sulfate, incubated for 15 min and centrifuged 20 min at 15,000 g. Resulting supernatant underwent the same procedure at 65% ammonium sulfate. The pellet was re-suspended in one-eighth of initial volume with 50 mM MES pH 6.7, 1 mM EGTA, 1 mM MgCl2 and desalted using Bio-Gel P30 (Bio-Rad) equilibrated with the same buffer (Fraction 11). […]

| IC50, inhibition of TCP activity (20 min preincubation with inhibitor) | IC50 (20 min preincubation with inhibitor, read-out: IC50, inhibition of TCP activity) | SMILES | Inhibition of brain TCP activity (in words) |
| --- | --- | --- | --- |
| – | – | NCCc1ccc(S(=O)(=O)F)cc1 [AEBSF] | inhibited |
| 300 µM | – | CC(C)C[C@H](NC(=O)[C@H]1O[C@@H]1C(=O)O)C(=O)NCCCCN=C(N)N [E-64] | inhibited; also recorded: modest inhibitory activity |
| – | ~500 nM | CCOC(=O)[C@H]1O[C@@H]1C(=O)N[C@@H](Cc1ccc(O)cc1)C(=O)O [EpoY] | most potent inhibitor |
| – | – | CCN1C(=O)C=CC1=O [N-Ethylmaleimide] | inhibited |
